Reference: US10167262B2, “Herbicidal substituted 3-arylpyrazoles” (FMC CORPORATION, priority 2014, dated 2019)

Legend:
Assay in all cases: Test E pre-/postemergence greenhouse test, plant response rating 0-100
Type in all cases: in vivo
[1] = system: barnyardgrass (Echinochloa crus-galli); conditions: Echinochloa crus-galli, post-emergence, Postemergence, scale 0 to 100
Procedure, shortened: (§1)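 Greenhouse response on a 0 (none) to 100 (complete control) scale, assessed 14 to 21 days post-treatment. Soil-applied preemergence on silt loam; foliar postemergence on plants 2–18 cm high.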

[2] = system: sandbur (southern sandbur, Cenchrus echinatus); conditions: Cenchrus echinatus, post-emergence, Postemergence, scale 0 to 100
Procedure, shortened: as §1

[3] = system: palmer pigweed (Amaranthus palmeri); conditions: scale 0 to 100; for Pigweed, Palmer plant response rating: Preemergence
Procedure, shortened: as §1

[4] = system: arrowleaf sida (Sida rhombifolia); conditions: scale 0 to 100
Procedure, shortened: as §1

[5] = system: dayflower (Virginia (VA) dayflower, Commelina virginica); conditions: scale 0 to 100
Procedure, shortened: as §1

[6] = system: wild poinsettia (Euphorbia heterophylla); conditions: scale 0 to 100; for Poinsettia, Wild plant response rating: Preemergence
Procedure, shortened: as §1

[7] = system: Italian ryegrass (Lolium multiflorum); conditions: Lolium multiflorum, post-emergence, Postemergence, scale 0 to 100
Procedure, shortened: as §1

[8] = system: waterhemp (common waterhemp, Amaranthus rudis); conditions: scale 0 to 100; for Waterhemp plant response rating: Preemergence
Procedure, shortened: as §1

[9] = system: Brazilian crabgrass (Digitaria horizontalis); conditions: Digitaria horizontalis, post-emergence, Postemergence, scale 0 to 100, read-out: Plant response rating, Crabgrass, Brazil
Procedure, shortened: as §1

corn (Zea mays) = conditions: scale 0 to 100
Procedure, shortened: as §1

soybean (Glycine max) = conditions: scale 0 to 100; for Soybean plant response rating: Preemergence
Procedure, shortened: as §1

[10] = system: hairy beggarticks (Bidens pilosa); conditions: Preemergence, scale 0 to 100
Procedure, shortened: as §1

Cn1cc(C(=O)c2ccccc2)c(-c2cc(Cl)cc(Cl)c2)n1 [Compound 54, [3-(3,5-dichlorophenyl)-1-methyl-1H-pyrazol-4-yl]phenylmethanone]
pest or weed control at 16 g/ha ([1]; 16 g ai/ha): 0% | pest or weed control at 31 g/ha ([1]; 31 g ai/ha): 0% | pest or weed control at 62 g/ha ([1]; 62 g ai/ha): 0% | pest or weed control at 125 g/ha ([1]; 125 g ai/ha): 0% | pest or weed control at 250 g/ha ([1]; 250 g ai/ha): 0% | pest or weed control at 31 g/ha ([2]; 31 g ai/ha): 0% | pest or weed control at 62 g/ha ([2]; 62 g ai/ha): 0% | pest or weed control at 125 g/ha ([2]; 125 g ai/ha): 0% | pest or weed control at 250 g/ha ([2]; 250 g ai/ha): 0% | pest or weed control at 31 g/ha ([3]; Amaranthus palmeri, post-emergence, Postemergence, 31 g ai/ha): 40% | pest or weed control at 62 g/ha ([3]; Amaranthus palmeri, post-emergence, Postemergence, 62 g ai/ha): 60% | pest or weed control at 125 g/ha ([3]; Amaranthus palmeri, post-emergence, Postemergence, 125 g ai/ha): 75% | pest or weed control at 250 g/ha ([3]; Amaranthus palmeri, post-emergence, Postemergence, 250 g ai/ha): 95% | Pigweed, Palmer plant response rating ([3]; 125 g ai/ha): 86 | Pigweed, Palmer plant response rating ([3]; 250 g ai/ha): 95 | Arrowleaf Sida plant response rating ([4]; Preemergence, 125 g ai/ha): 43 | Arrowleaf Sida plant response rating ([4]; Preemergence, 250 g ai/ha): 80 | pest or weed control at 16 g/ha ([4]; Sida rhombifolia, post-emergence, Postemergence, 16 g ai/ha): 30% | pest or weed control at 31 g/ha ([4]; Sida rhombifolia, post-emergence, Postemergence, 31 g ai/ha): 50% | pest or weed control at 62 g/ha ([4]; Sida rhombifolia, post-emergence, Postemergence, 62 g ai/ha): 50% | pest or weed control at 125 g/ha ([4]; Sida rhombifolia, post-emergence, Postemergence, 125 g ai/ha): 65% | pest or weed control at 250 g/ha ([4]; Sida rhombifolia, post-emergence, Postemergence, 250 g ai/ha): 75% | pest or weed control at 1000 g/ha ([4]; Sida rhombifolia, pre-emergence, Preemergence, 1000 g ai/ha): 100% | pest or weed control at 16 g/ha ([5]; Commelina virginica, post-emergence, Postemergence, 16 g ai/ha): 0% | pest or weed control at 31 g/ha ([5]; Commelina virginica, post-emergence, Postemergence, 31 g ai/ha): 0% | pest or weed control at 62 g/ha ([5]; Commelina virginica, post-emergence, Postemergence, 62 g ai/ha): 0% | pest or weed control at 125 g/ha ([5]; Commelina virginica, post-emergence, Postemergence, 125 g ai/ha): 0% | pest or weed control at 250 g/ha ([5]; Commelina virginica, post-emergence, Postemergence, 250 g ai/ha): 0% | pest or weed control at 1000 g/ha ([5]; Commelina virginica, pre-emergence, Preemergence, 1000 g ai/ha): 0% | Dayflower, VA plant response rating ([5]; Preemergence, 125 g ai/ha): 0 | Dayflower, VA plant response rating ([5]; Preemergence, 250 g ai/ha): 0 | pest or weed control at 31 g/ha ([6]; Euphorbia heterophylla, post-emergence, Postemergence, 31 g ai/ha, read-out: Plant response rating, Poinsettia, Wild): 0% | pest or weed control at 62 g/ha ([6]; Euphorbia heterophylla, post-emergence, Postemergence, 62 g ai/ha, read-out: Plant response rating, Poinsettia, Wild): 0% | pest or weed control at 125 g/ha ([6]; Euphorbia heterophylla, post-emergence, Postemergence, 125 g ai/ha, read-out: Plant response rating, Poinsettia, Wild): 0% | pest or weed control at 250 g/ha ([6]; Euphorbia heterophylla, post-emergence, Postemergence, 250 g ai/ha, read-out: Plant response rating, Poinsettia, Wild): 0% | Poinsettia, Wild plant response rating ([6]; 125 g ai/ha): 80 | Poinsettia, Wild plant response rating ([6]; 250 g ai/ha): 23 | pest or weed control at 31 g/ha ([7]; 31 g ai/ha): 0% | pest or weed control at 62 g/ha ([7]; 62 g ai/ha): 0% | pest or weed control at 125 g/ha ([7]; 125 g ai/ha): 0% | pest or weed control at 250 g/ha ([7]; 250 g ai/ha): 0% | pest or weed control at 62 g/ha ([8]; Amaranthus tuberculatus, post-emergence, Postemergence, 62 g ai/ha): 60% | pest or weed control at 125 g/ha ([8]; Amaranthus tuberculatus, post-emergence, Postemergence, 125 g ai/ha): 70% | pest or weed control at 250 g/ha ([8]; Amaranthus tuberculatus, post-emergence, Postemergence, 250 g ai/ha): 95% | Waterhemp plant response rating ([8]; 125 g ai/ha): 96 | Waterhemp plant response rating ([8]; 250 g ai/ha): 99 | pest or weed control at 16 g/ha ([9]; 16 g ai/ha): 0% | pest or weed control at 31 g/ha ([9]; 31 g ai/ha): 0% | pest or weed control at 62 g/ha ([9]; 62 g ai/ha): 0% | pest or weed control at 125 g/ha ([9]; 125 g ai/ha): 0% | pest or weed control at 250 g/ha ([9]; 250 g ai/ha): 0% | Corn plant response rating (corn (Zea mays); Preemergence, 125 g ai/ha): 0 | Corn plant response rating (corn (Zea mays); Preemergence, 250 g ai/ha): 0 | Corn plant response rating (crop injury, 0 = no effect, 100 = complete kill) at 16 g/ha (corn (Zea mays); Zea mays, post-emergence, Postemergence, 16 g ai/ha): 0% | Corn plant response rating (crop injury, 0 = no effect, 100 = complete kill) at 31 g/ha (corn (Zea mays); Zea mays, post-emergence, Postemergence, 31 g ai/ha): 0% | Corn plant response rating (crop injury, 0 = no effect, 100 = complete kill) at 62 g/ha (corn (Zea mays); Zea mays, post-emergence, Postemergence, 62 g ai/ha): 0% | Corn plant response rating (crop injury, 0 = no effect, 100 = complete kill) at 125 g/ha (corn (Zea mays); Zea mays, post-emergence, Postemergence, 125 g ai/ha): 0% | Corn plant response rating (crop injury, 0 = no effect, 100 = complete kill) at 250 g/ha (corn (Zea mays); Zea mays, post-emergence, Postemergence, 250 g ai/ha): 0% | Corn plant response rating (crop injury, 0 = no effect, 100 = complete kill) at 1000 g/ha (corn (Zea mays); Zea mays, pre-emergence, Preemergence, 1000 g ai/ha): 0% | plant injury at 31 g/ha (soybean (Glycine max); Glycine max, post-emergence, Postemergence, 31 g ai/ha): 0% | plant injury at 62 g/ha (soybean (Glycine max); Glycine max, post-emergence, Postemergence, 62 g ai/ha): 0% | plant injury at 125 g/ha (soybean (Glycine max); Glycine max, post-emergence, Postemergence, 125 g ai/ha): 0% | plant injury at 250 g/ha (soybean (Glycine max); Glycine max, post-emergence, Postemergence, 250 g ai/ha): 0% | Soybean plant response rating (soybean (Glycine max); 125 g ai/ha): 0 | Soybean plant response rating (soybean (Glycine max); 250 g ai/ha): 12 | pest or weed control at 1000 g/ha ([10]; Bidens pilosa, pre-emergence, 1000 g ai/ha): 90% | Beggarticks plant response rating ([10]; 125 g ai/ha): 0 | Beggarticks plant response rating ([10]; 250 g ai/ha): 23
